Results published in PubChem BioAssay (NCI).
“And” between values parts separate entries of the source, which are not always exact repeats. Equal values may be shown once.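 Cells were grown in 96-well plates and exposed to each compound for 48 hours at five concentrations; endpoints were interpolated linearly between bracketing concentrations, or set to the highest concentration if not reached. GI50: concentration for 50% inhibition of growth. TGI: concentration producing complete growth inhibition.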

Legend:
Assay in all cases: NCI-60 cell line screen, 48 h
[1] = system: EKVX NSCLC
[2] = system: SK-MEL-5 melanoma
[3] = system: SN12C renal
[4] = system: MALME-3M melanoma
[5] = system: NCI-H522 lung
[6] = system: K-562 leukemia
[7] = system: A549 NSCLC
[8] = system: RXF 393 renal
[9] = system: HOP-62 NSCLC
[10] = system: SW-620 colon

Structure (SMILES)	TGI [1]	TGI [2]	TGI [3]	TGI [4]	TGI [5]	TGI [6]	TGI [7]	TGI [8]	TGI [9]	TGI [10]	GI50 [1]	GI50 [2]	GI50 [3]	GI50 [4]	GI50 [5]	GI50 [6]	GI50 [7]	GI50 [8]	GI50 [9]	GI50 [10]
CCc1[nH]nc(C(N)=O)c1N=NN(C)C	> 100 µM	> 100 µM	> 100 µM	> 100 µM	> 100 µM	66.7 µM	> 100 µM	> 100 µM	> 100 µM	> 100 µM	–	–	–	–	–	–	–	–	–	–
COc1ccccc1NC(=O)CC(=O)n1nc(C)c(N=Nc2ccccc2Cl)c1C	> 100 µM	> 100 µM	> 100 µM	> 100 µM	> 100 µM	> 100 µM	> 100 µM	> 100 µM	> 100 µM	> 100 µM	–	–	–	–	–	–	–	–	–	–
CN(/N=C/c1ccccc1O)c1ccc2ccccc2n1	54.9 µM	> 100 µM	> 100 µM	47.8 µM	80.9 µM	> 100 µM	29.8 µM	90 µM	29.9 µM	> 100 µM	–	–	–	–	–	–	–	–	–	–
Cc1ccc2[nH]c(O)c(N=Nc3ccccc3[N+](=O)[O-])c2c1	57.3 µM	> 100 µM	> 100 µM	7.9 µM	5.29 µM	> 100 µM	> 100 µM	20.8 µM	10.7 µM	> 100 µM	–	–	–	–	–	–	–	–	–	–
O=C(O)CN1C(=O)CN=C(c2ccccn2)c2cc(Cl)ccc21	> 100 µM	> 100 µM	> 100 µM	> 100 µM	> 100 µM	> 100 µM	> 100 µM	> 100 µM	> 100 µM	> 100 µM	–	–	–	–	–	–	–	–	–	–
O=[N+]([O-])c1cc(I)cc(/C=N/NS(=O)(=O)c2ccc(Cl)cc2)c1O	83 µM	36.9 µM	49.4 µM	48.9 µM	33.2 µM	57.1 µM	> 100 µM	45.4 µM	53.6 µM	82.4 µM	–	–	–	–	–	–	–	–	–	–
C#Cc1cccc(NC(=O)c2cccc(NC(=O)CCl)c2)c1	> 82.5 µM	28 µM	49.1 µM	41.5 µM	33.4 µM	> 82.5 µM	> 82.5 µM	29.8 µM	> 82.5 µM	17 µM	27200 nM	15.1 µM	14900 nM	15700 nM	12700 nM	7740 nM	21600 nM	12700 nM	27800 nM	4550 nM
Cc1c[nH]c(=O)n(Cc2nnc(CCC(=O)c3nc4ccccc4[nH]3)o2)c1=O	> 100 µM	67.7 µM	> 100 µM	> 100 µM	1.4 µM	> 100 µM	> 100 µM	3.83 µM	> 100 µM	> 100 µM	1510 nM	0.33 µM	1120 nM	1140 nM	281 nM	1030 nM	475 nM	697 nM	967 nM	483 nM
COc1ccc(-c2cc(-c3ccc(OC)cc3)nc(NCCCNc3ccnc4cc(Cl)ccc34)n2)cc1	4.17 µM	2.89 µM	3.34 µM	3.26 µM	3.81 µM	4.6 µM	3.66 µM	2.74 µM	3.06 µM	3.34 µM	1670 nM	1.54 µM	1710 nM	1760 nM	1920 nM	1790 nM	1810 nM	1320 nM	1560 nM	1690 nM
CCc1cccc(C(C)CC)c1NC(=O)C(=O)Cc1nc2ccccc2o1 (centres undefined)	> 50 µM	> 50 µM	> 50 µM	> 50 µM	> 50 µM	> 50 µM	> 50 µM	> 50 µM	> 50 µM	> 50 µM	–	–	–	–	–	–	–	–	–	–
FC(F)(F)c1nc(SCc2ccc(Cl)cc2)n[nH]1	> 100 µM	> 100 µM	> 100 µM	> 100 µM	> 100 µM	> 100 µM	> 100 µM	> 100 µM	> 100 µM	> 100 µM	–	–	–	–	–	–	–	–	–	–
COc1ccc(CNCCCN2C(=O)c3ccc4c5c(ccc(c35)C2=O)C(=O)N(CCCNCc2ccc(OC)c(OC)c2OC)C4=O)c(OC)c1OC	0.176 µM	0.147 µM	0.157 µM	0.151 µM	0.163 µM	0.515 µM	0.231 µM	0.176 µM	0.729 µM	0.225 µM	92.9 nM	0.0792 µM	82.1 nM	76.5 nM	80.4 nM	168 nM	103 nM	82.3 nM	171 nM	93.2 nM
CC(C)CCCCCCCCCCCCC(=O)NCC(=O)NC1C(C)OC(Nc2ncnc3nc[nH]c23)C(O)C1O (centres undefined)	–	–	0.683 µM	–	0.0182 µM	–	0.472 µM and 0.19 µM	0.0369 µM	0.00859 µM	0.146 µM and 0.0233 µM	25.1 nM	–	5.48 nM	2.54 nM	1.37 nM	41.4 nM	3.24 nM	1.01 nM	–	2.18 nM
O=C(C=Nc1ccccc1S)c1ccco1	30.2 µM	31.7 µM	21.5 µM	35.1 µM	28.8 µM	45.8 µM	22.4 µM	29 µM	15.2 µM	32.8 µM	–	–	–	–	–	–	–	–	–	–
CCCS(=O)(=O)Nc1cccc(Nc2ncnc3cc(NC(=O)CCl)ccc23)c1Cl	12.3 µM	7.14 µM	3.85 µM	4.28 µM	0.913 µM	17.1 µM	10.1 µM	7.13 µM	7.12 µM	4.16 µM	3720 nM	3.4 µM	1060 nM	674 nM	432 nM	1040 nM	4990 nM	3260 nM	2360 nM	1230 nM
O=C1c2cc3c(cc2-c2c1c1ccc(F)cc1c(=O)n2C[C@H](O)[C@H](O)[C@H](O)CO)OCO3	4.63 µM	0.277 µM	0.792 µM	0.831 µM	0.228 µM	> 100 µM	–	0.502 µM	0.52 µM	> 100 µM	357 nM	0.141 µM	190 nM	209 nM	31.3 nM	136 nM	–	193 nM	112 nM	96.7 nM
CCN(CC)CCn1c(=O)c2cc(OC)c(OC)cc2c2ccc3cc4c(cc3c21)OCO4	29.4 µM	0.457 µM	20.2 µM	14.5 µM	21 µM	–	8.53 µM	17.2 µM	13.8 µM	23.2 µM	12200 nM	0.193 µM	455 nM	354 nM	151 nM	536 nM	725 nM	448 nM	246 nM	692 nM
COc1ccc(C2CC(c3ccc(OC)cc3O)=NN2c2ccc(S(N)(=O)=O)cc2)cc1 (centres undefined)	> 100 µM	> 100 µM	> 100 µM	> 100 µM	> 100 µM	> 100 µM	> 100 µM	> 100 µM	> 100 µM	> 100 µM	4480 nM	14.9 µM	16700 nM	20200 nM	15500 nM	5710 nM	6360 nM	25600 nM	33100 nM	16000 nM
N#CC1(N2CCCC2)CCC2(CC1)OCCO2	> 100 µM	> 100 µM	> 100 µM	> 100 µM	> 100 µM	> 100 µM	> 100 µM	> 100 µM	> 100 µM	> 100 µM	–	–	–	–	–	–	–	–	–	–
C=CCOc1ccc(N)c([N+](=O)[O-])c1	> 100 µM	> 100 µM	> 100 µM	> 100 µM	> 100 µM	> 100 µM	> 100 µM	> 100 µM	> 100 µM	> 100 µM	–	–	–	–	–	–	–	–	–	–
O=c1cc(-c2ccccc2)oc2c1ccc1ccccc12	–	65.3 µM	> 100 µM	72.1 µM	> 100 µM	> 100 µM	> 100 µM	64.4 µM	> 100 µM	> 100 µM	–	20.2 µM	19600 nM	29100 nM	30500 nM	49500 nM	23800 nM	24100 nM	29600 nM	49200 nM
C[C@]12CCc3nonc3C1CC[C@@H]1C2CC[C@@]2(C)C1CC[C@@H]2O (some centres undefined)	> 100 µM	> 100 µM	> 100 µM	> 100 µM	> 100 µM	> 100 µM	> 100 µM	> 100 µM	> 100 µM	> 100 µM	–	–	–	–	–	–	–	–	–	–
C1C[OH+]CCNCC[OH+]CC[OH+]CCN1.N.[Cl-].[Pt+4]	–	> 100 µM	> 100 µM	> 100 µM	48.7 µM	> 100 µM	> 100 µM	90.3 µM	> 100 µM	> 100 µM	–	35.5 µM	> 100000 nM	> 100000 nM	14200 nM	41500 nM	51300 nM	22800 nM	> 100000 nM	67700 nM
O=C(c1ccc2ccccc2c1)c1c(C(F)(F)F)n([O-])c2cc(C(F)(F)F)ccc2[n+]1=O	3.43 µM	–	3.81 µM	3.36 µM	3.09 µM	2.9 µM	3.51 µM	3.16 µM	3.72 µM	–	1570 nM	8.14 µM	1680 nM	1670 nM	1550 nM	1380 nM	1660 nM	1500 nM	1920 nM	–
